Test results: patent US20100298141A1, “SUBSTITUTED PYRIDINE N-OXIDE HERBICIDES” (E. I. DU PONT DE NEMOURS AND COMPANY, priority 2007, published 2010)

How the values were obtained:
[1] = tested on: morningglory; test: Test C pre-/postemergence test; assay type: in vivo, Ipomoea coccinea
Excerpt: Seeds of plant species selected from blackgrass (Alopecurus myosuroides), downy brome (Bromus tectorum), green foxtail (Setaria viridis), Italian ryegrass (Lolium multiflorum), wheat (Triticum aestivum), wild oat (Avena fatua), catchweed bedstraw (Galium aparine), Russian thistle (Salsola kali), […] (Cynodon dactylon), Surinam grass (Brachiaria decumbens), cocklebur (Xanthium strumarium), corn (Zea mays), crabgrass (Digitaria sanguinalis), woolly cupgrass (Eriochloa villosa), giant foxtail (Setaria faberii), Goosegrass (Eleusin indica), johnsongrass (Sorghum halepense), kochia (Kochia scoparia), lambsquarters (Chenopodium album), morningglory (Ipomoea coccinea), eastern black nightshade (Solanum ptycanthum), yellow nutsedge (Cyperus esculentus), pigweed (Amaranthus retroflexus), common ragweed (Ambrosia elation), soybean (Glycine max), common (oilseed) sunflower (Helianthus annuus), and velvetleaf (Abutilon theophrasti) were planted and treated preemergence with test chemicals formulated in a non-phytotoxic solvent mixture which included a surfactant. At the same time, plants selected from these crop and weed species and also winter barley (Hordeum vulgare), canarygrass (Phalaris minor), and chickweed (Stellaria media) were treated with postemergence applications of some of the test chemicals formulated in the same manner. Plants ranged in height from 2 to 18 cm (1- to 4-leaf stage) for postemergence treatments. […] At time of treatment, test pots were flooded to 3 cm above the soil surface, treated by application of test compounds directly to the paddy water, and then maintained at that water depth for the duration of the test. […] A dash (-) response means no test result.

[2] = tested on: rice; test: Test C flooded paddy test; assay type: in vivo, Oryza sativa; conditions: Flood
Outline: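 Ratings were visual and made relative to untreated controls after 13 to 15 greenhouse days.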

[3] = tested on: bermudagrass; test: Test F preemergence test; assay type: in vivo, Cynodon dactylon; conditions: scale 0 to 100
Excerpt: (§1) Seeds of plant species selected from bermudagrass (Cynodon dactylon), Surinam grass (Brachiaria decumbens), large crabgrass (Digitaria sanguinalis), green foxtail (Setaria viridis), goosegrass (Eleusine indica), johnsongrass (Sorghum halepense), kochia (Kochia scoparia), pitted morningglory (Ipomoea lacunosa), purple nutsedge (Cyperus rotundus), common ragweed (Ambrosia elation), mustard (Brassica nigra), guineagrass (Panicum maximum), […] (Paspalum dilatatum), barnyardgrass (Echinochloa crus-galli), southern sandbur (Cenchrus echinatus), common sowthistle (Sonchus oleraceous), prickly […] spinosa), Italian ryegrass (Lolium multiflorum), common purslane (Portulaca oleracea), broadleaf signalgrass (Brachiaria platyphylla), common groundsel (Senecio vulgaris), common chickweed (Stellaria media), Virginia dayflower (Commelina virginica), annual bluegrass (Poa annua), naked crabgrass (Digitaria nuda), […] cochinchinensis), quackgrass (Elytrigia repens), Canada horseweed (Conyza canadensis), field bindweed (Convolvulus arvensis), […] (Bidens bipinnata), common mallow (Malva sylvestris), Russian thistle (Salsola kali), and sugarcane (Saccharum officinarum) were planted and treated preemergence with test chemicals formulated in a non-phytotoxic solvent mixture which included a surfactant. At a different time, sugarcane was treated with postemergence applications of some of the test chemicals formulated in the same manner. Plants were approximately 3- to 4-leaf stage for the postemergence treatments. Treated plants and controls were maintained in a greenhouse for 14 to 21 days, after which time all species were compared to controls and visually evaluated. […] A dash (-) response means no test result.

[4] = tested on: Surinam grass; test: Test F preemergence test; assay type: in vivo, Brachiaria decumbens; conditions: scale 0 to 100
Excerpt: as §1

[5] = tested on: large crabgrass; test: Test F preemergence test; assay type: in vivo, Digitaria sanguinalis; conditions: scale 0 to 100
Excerpt: as §1

[6] = tested on: goosegrass; test: Test F preemergence test; assay type: in vivo, Eleusine indica; conditions: scale 0 to 100
Excerpt: as §1

[7] = tested on: johnsongrass; test: Test F preemergence test; assay type: in vivo, Sorghum halepense; conditions: scale 0 to 100
Excerpt: as §1

[8] = tested on: kochia; test: Test F preemergence test; assay type: in vivo, Kochia scoparia; conditions: scale 0 to 100
Excerpt: as §1

[9] = tested on: pitted morningglory; test: Test F preemergence test; assay type: in vivo, Ipomoea lacunosa; conditions: scale 0 to 100
Excerpt: as §1

[10] = tested on: purple nutsedge; test: Test F preemergence test; assay type: in vivo, Cyperus rotundus; conditions: scale 0 to 100
Excerpt: as §1

[11] = tested on: common ragweed; test: Test F preemergence test; assay type: in vivo, Ambrosia elation; conditions: scale 0 to 100
Excerpt: as §1

[12] = tested on: Italian ryegrass; test: Test F preemergence test; assay type: in vivo, Lolium multiflorum; conditions: scale 0 to 100
Excerpt: as §1

[13] = tested on: broadleaf signalgrass; test: Test F preemergence test; assay type: in vivo, Brachiaria platyphylla; conditions: scale 0 to 100
Excerpt: as §1

[14] = tested on: annual bluegrass; test: Test F preemergence test; assay type: in vivo, Poa annua; conditions: scale 0 to 100
Excerpt: as §1

[15] = tested on: naked crabgrass; test: Test F preemergence test; assay type: in vivo, Digitaria nuda; conditions: scale 0 to 100
Excerpt: as §1

[16] = 125 g ai/ha, preemergence, scale 0 (no effect) to 100 (complete control)
[17] = Preemergence, 31 g ai/ha, scale 0 to 100 (0 no effect, 100 complete control)
[18] = 62 g ai/ha, scale 0 to 100 (0 no effect, 100 complete control)
[19] = 250 g ai/ha, scale 0 to 100, 0 no effect, 100 complete control, 13 to 15 days

Structure (SMILES): Cn1nc(C(F)(F)F)c(C[S+]([O-])c2ccc(F)c[n+]2[O-])c1OC(F)F (stereo not shown) [Compound 58]
- Morningglory plant response rating ([1]; 62 g ai/ha, Preemergence, scale 0 to 100): 98
- Morningglory plant response rating [1, 16]: 98
- Plant response rating (0 to 100), Morningglory ([1]; Postemergence, 31 g ai/ha): 0
- Plant response rating, Morningglory ([1]; Postemergence, 62 g ai/ha, scale 0 to 100, 0 no effect, 100 complete control): 0
- Plant response rating, Morningglory ([1]; Postemergence, 125 g ai/ha, scale 0 to 100, 0 no effect, 100 complete control): 5
- Plant response rating, Morningglory ([1]; Postemergence, 250 g ai/ha, scale 0 to 100, 0 no effect, 100 complete control): 5
- Plant response rating, Morningglory [1, 17]: 80
- Morningglory plant response rating ([1]; preemergence, 250 g ai/ha, scale 0 (no effect) to 100 (complete control)): 100
- Plant response rating, Rice [2, 18]: 40
- Plant response rating, Rice [2, 19]: 65
- Bermudagrass plant response rating ([3]; 62 g ai/ha, Preemergence): 90
- Bermudagrass plant response rating ([3]; 125 g ai/ha, preemergence): 100
- Bermudagrass plant response rating ([3]; 250 g ai/ha, preemergence): 100
- Plant response rating, Bermudagrass ([3]; Preemergence, 31 g ai/ha): 70
- Surinam Grass plant response rating ([4]; 125 g ai/ha, preemergence): 100
- Surinam Grass plant response rating ([4]; 250 g ai/ha, preemergence): 100
- Plant response rating, Surinam Grass ([4]; Preemergence, 62 g ai/ha): 98
- Plant response rating, Surinam Grass ([4]; Preemergence, 31 g ai/ha): 80
- Crabgrass, Large plant response rating ([5]; 62 g ai/ha, Preemergence): 98
- Crabgrass, Large plant response rating ([5]; 125 g ai/ha, preemergence): 100
- Crabgrass, Large plant response rating ([5]; 250 g ai/ha, preemergence): 100
- Plant response rating, Crabgrass, Large ([5]; Preemergence, 31 g ai/ha): 75
- Goosegrass plant response rating ([6]; 62 g ai/ha, Preemergence): 98
- Goosegrass plant response rating ([6]; 125 g ai/ha, preemergence): 98
- Goosegrass plant response rating ([6]; 250 g ai/ha, preemergence): 100
- Plant response rating, Goosegrass ([6]; Preemergence, 31 g ai/ha): 70
- Johnsongrass plant response rating ([7]; 62 g ai/ha, Preemergence): 90
- Johnsongrass plant response rating ([7]; 125 g ai/ha, preemergence): 100
- Johnsongrass plant response rating ([7]; 250 g ai/ha, preemergence): 100
- Plant response rating, Johnsongrass ([7]; Preemergence, 31 g ai/ha): 80
- Kochia plant response rating ([8]; 62 g ai/ha, Preemergence): 40
- Kochia plant response rating ([8]; 125 g ai/ha, preemergence): 100
- Kochia plant response rating ([8]; 250 g ai/ha, preemergence): 100
- Plant response rating, Kochia ([8]; Preemergence, 31 g ai/ha): 20
- Morningglory plant response rating ([9]; 62 g ai/ha, Preemergence): 70
- Morningglory plant response rating ([9]; 125 g ai/ha, preemergence): 100
- Morningglory plant response rating ([9]; 250 g ai/ha, preemergence): 100
- Plant response rating, Morningglory ([9]; Preemergence, 31 g ai/ha): 50
- Purple Nutsedge plant response rating ([10]; 62 g ai/ha, Preemergence): 80
- Purple Nutsedge plant response rating ([10]; 125 g ai/ha, preemergence): 95
- Purple Nutsedge plant response rating ([10]; 250 g ai/ha, preemergence): 95
- Plant response rating, Purple Nutsedge ([10]; Preemergence, 31 g ai/ha): 0
- Ragweed plant response rating ([11]; 125 g ai/ha, preemergence): 60
- Ragweed plant response rating ([11]; 250 g ai/ha, preemergence): 80
- Plant response rating, Ragweed ([11]; Preemergence, 62 g ai/ha): 60
- Plant response rating, Ragweed ([11]; Preemergence, 31 g ai/ha): 50
- Ryegrass, Italian plant response rating ([12]; 125 g ai/ha, preemergence): 100
- Ryegrass, Italian plant response rating ([12]; 250 g ai/ha, preemergence): 100
- Plant response rating, Ryegrass, Italian ([12]; Preemergence, 62 g ai/ha): 98
- Plant response rating, Ryegrass, Italian ([12]; Preemergence, 31 g ai/ha): 50
- Signalgrass plant response rating ([13]; 125 g ai/ha, preemergence): 90
- Signalgrass plant response rating ([13]; 250 g ai/ha, preemergence): 98
- Plant response rating, Signalgrass ([13]; Preemergence, 62 g ai/ha): 80
- Plant response rating, Signalgrass ([13]; Preemergence, 31 g ai/ha): 30
- Bluegrass plant response rating ([14]; 62 g ai/ha, Preemergence): 70
- Bluegrass plant response rating ([14]; 125 g ai/ha, preemergence): 95
- Bluegrass plant response rating ([14]; 250 g ai/ha, preemergence): 100
- Plant response rating, Bluegrass ([14]; Preemergence, 31 g ai/ha): 0
- Crabgrass, Naked plant response rating ([15]; 62 g ai/ha, Preemergence): 100
- Crabgrass, Naked plant response rating ([15]; 125 g ai/ha, preemergence): 100
- Crabgrass, Naked plant response rating ([15]; 250 g ai/ha, preemergence): 100
- Plant response rating, Crabgrass, Naked ([15]; Preemergence, 31 g ai/ha): 75

Structure (SMILES): Cn1nc(OC(F)F)c(CS(=O)(=O)c2cccc[n+]2[O-])c1C(F)(F)F [Compound 80]
- Morningglory plant response rating [1, 16]: 100
- Plant response rating, Morningglory [1, 17]: 10
- Plant response rating, Rice [2, 18]: 0
- Plant response rating, Rice [2, 19]: 50
- Plant response rating, Bermudagrass ([3]; 16 g ai/ha, preemergence): 50
- Bermudagrass plant response rating ([3]; 62 g ai/ha, Preemergence): 90
- Bermudagrass plant response rating ([3]; 125 g ai/ha, preemergence): 98
- Plant response rating, Bermudagrass ([3]; Preemergence, 31 g ai/ha): 80
- Plant response rating, Surinam Grass ([4]; 16 g ai/ha, preemergence): 0
- Surinam Grass plant response rating ([4]; 125 g ai/ha, preemergence): 100
- Plant response rating, Surinam Grass ([4]; Preemergence, 62 g ai/ha): 98
- Plant response rating, Surinam Grass ([4]; Preemergence, 31 g ai/ha): 80
- Plant response rating, Crabgrass, Large ([5]; 16 g ai/ha, preemergence): 40
- Crabgrass, Large plant response rating ([5]; 62 g ai/ha, Preemergence): 80
- Crabgrass, Large plant response rating ([5]; 125 g ai/ha, preemergence): 90
- Plant response rating, Crabgrass, Large ([5]; Preemergence, 31 g ai/ha): 80
- Plant response rating, Goosegrass ([6]; 16 g ai/ha, preemergence): 80
- Goosegrass plant response rating ([6]; 62 g ai/ha, Preemergence): 95
- Goosegrass plant response rating ([6]; 125 g ai/ha, preemergence): 100
- Plant response rating, Goosegrass ([6]; Preemergence, 31 g ai/ha): 85
- Plant response rating, Johnsongrass ([7]; 16 g ai/ha, preemergence): 50
- Johnsongrass plant response rating ([7]; 62 g ai/ha, Preemergence): 90
- Johnsongrass plant response rating ([7]; 125 g ai/ha, preemergence): 98
- Plant response rating, Johnsongrass ([7]; Preemergence, 31 g ai/ha): 75
- Plant response rating, Kochia ([8]; 16 g ai/ha, preemergence): 0
- Kochia plant response rating ([8]; 62 g ai/ha, Preemergence): 35
- Kochia plant response rating ([8]; 125 g ai/ha, preemergence): 90
- Plant response rating, Kochia ([8]; Preemergence, 31 g ai/ha): 0
- Plant response rating, Purple Nutsedge ([10]; 16 g ai/ha, preemergence): 0
- Purple Nutsedge plant response rating ([10]; 62 g ai/ha, Preemergence): 50
- Purple Nutsedge plant response rating ([10]; 125 g ai/ha, preemergence): 80
- Plant response rating, Ragweed ([11]; 16 g ai/ha, preemergence): 0
- Ragweed plant response rating ([11]; 125 g ai/ha, preemergence): 90
- Plant response rating, Ragweed ([11]; Preemergence, 31 g ai/ha): 0
- Plant response rating, Ryegrass, Italian ([12]; 16 g ai/ha, preemergence): 15
- Ryegrass, Italian plant response rating ([12]; 125 g ai/ha, preemergence): 65
- Plant response rating, Ryegrass, Italian ([12]; Preemergence, 62 g ai/ha): 65
- Plant response rating, Ryegrass, Italian ([12]; Preemergence, 31 g ai/ha): 20
- Plant response rating, Signalgrass ([13]; 16 g ai/ha, preemergence): 25
- Signalgrass plant response rating ([13]; 125 g ai/ha, preemergence): 98
- Plant response rating, Signalgrass ([13]; Preemergence, 62 g ai/ha): 75
- Plant response rating, Signalgrass ([13]; Preemergence, 31 g ai/ha): 25
- Plant response rating, Bluegrass ([14]; 16 g ai/ha, preemergence): 25
- Bluegrass plant response rating ([14]; 62 g ai/ha, Preemergence): 90
- Bluegrass plant response rating ([14]; 125 g ai/ha, preemergence): 95
- Plant response rating, Bluegrass ([14]; Preemergence, 31 g ai/ha): 25
- Plant response rating, Crabgrass, Naked ([15]; 16 g ai/ha, preemergence): 0
- Crabgrass, Naked plant response rating ([15]; 62 g ai/ha, Preemergence): 90
- Crabgrass, Naked plant response rating ([15]; 125 g ai/ha, preemergence): 100
- Plant response rating, Crabgrass, Naked ([15]; Preemergence, 31 g ai/ha): 75
